Test results: patent publication US12391646B2, “Using adiponectin receptor agonists to treat inflammation and bone diseases in diabetes” (Trustees of Tufts College, priority 2020, dated 2025)

Assays:
[1] = tested on: peritoneal macrophages (PEMs); test: IL-6 and IL-1β production by peritoneal macrophages isolated from AdipoAI-treated mice; assay type: in vivo, C57BL/6J mice; conditions: i.p., 20 mg/kg body weight as printed
[2] = tested on: LPS-stimulated Raw264.7 cells; test: mRNA microarray analysis of LPS-stimulated Raw264.7 cells; assay type: cell-based
Protocol: (§1) FIG. 2 AdipoAI suppresses LPS-stimulated inflammatory responses in macrophages. (a) Raw264.7 cells or (b) BMMs were pretreated with APR (20 μM) or AdipoAI (5 μM) for 24 h followed by incubation with LPS (100 ng/mL) for additional 6 h for the measurement of IL-6 and IL-1β in supernatants by ELISA. Data were expressed as the mean±SEM at five biological independent experiments. One-way ANOVA test for multiple-group comparisons, * vs. LPS group, *P<0.05, significant differences between each indicated group. (c) PEMs were isolated from C57BL/6J mice (n=5 mice/group) were injected i.p. with ImL 4% thioglycolate solution or AdipoAI (25 mg/kg) for the measurement of IL-6 and IL-1β. The amounts of IL-6 and IL-1β in supernatant were measured by ELISA. Data were expressed as the mean±SEM (n=5). Two-tailed Student's t-test for two groups, *P<0.05, significant differences between each indicated group. (d-f) Impact of AdipoAI on basal (d) and LPS-induced expression of an array of proinflammatory cytokines, chemokines, and receptors (e,f) in Raw264.7 cells (4 groups and 3 biological replicates/group). Data analyses were performed according to the manufacturer's instructions with their web-based software package (www.qiagen.com/us/shop/genes-and-pathways/data-analysis-center overview-page/). (g) Differentiated expressed genes annotated to a gene-ontology term and example genes by gene-ontology-enrichment analysis of each component. (brown: LPS vs control; black: AdipoAI+LPS vs LPS). (h) Differentially expressed M1 and M2 genes are shown according to the microarray databases. […]
FIG. 7 AdipoAI regulated methylation level of the c-Maf gene promoter to suppress c-Maf activation in LPS-induced macrophages. […] (b) mRNA levels of c-Maf were determined by qPCR in Raw264.7 cells, BMMs and PEMs treated with AdiopoAI or LPS. Data were expressed as the mean±SEM at five […] biological independent experiments. […] (c) c-Maf mRNA expression levels in lung, spleen, liver and WAT of LPS-induced endotoxemia mice were measured by qRT-PCR and normalized with GAPDH mRNA levels. Data are expressed as mean±SEM (n=6). […]

LPS-induced BMMs = test: ELISA of IL-6 and IL-1β in supernatants of LPS-induced BMMs; assay type: cell-based, C57BL/6J mice; conditions: AdipoAI 5 μM 24 h then LPS 6 h
Protocol: as §1, with “overview-page/).” for “overview-page/). (g) Differentiated expressed genes annotated to a gene-ontology term and example genes by gene-ontology-enrichment analysis of each component. (brown: LPS vs control; black: AdipoAI+LPS vs LPS). (h) Differentially expressed M1 and M2 genes are shown according to the microarray databases.”

[3] = cited from earlier work

SMILES | production of IL-6 and IL-1β by PEMs from treated mice [1] | expression of M1 or M2 macrophage-related genes ([2]; LPS-induced Raw264.7 cells) | expression of proinflammatory cytokines, chemokines and receptors (microarray) ([2]; LPS-stimulated Raw264.7 cells) | c-Maf mRNA levels (microarray) ([2]; LPS-treated Raw264.7 cells) | IL-6 and IL-1β protein levels (ELISA) (LPS-induced BMMs) | solubility [3]
COc1ccc(CN2CCC(NC(=O)COc3ccc(C(=O)c4ccc(Cl)cc4)cc3)CC2)cc1 [Compound 3] | reduced IL-6 and IL-1β | did not alter the expression of M1 or M2 macrophage-related genes | decreased the expression of the same genes to near basal levels | inhibited | decreased IL-6 and IL-1β protein levels | 
O=C(COc1ccc(C(=O)c2ccccc2)cc1)NC1CCN(Cc2ccccc2)CC1 [AdipoRon, reference compound] |  |  |  |  |  | relatively low solubility
